Assay results reported in ChEMBL document CHEMBL5331129, “Discovery of NAFLD-Improving Agents by Promoting the Degradation of Keap1” (J Med Chem, 2023).
Activity calls are given as the source filed them. The calls are words filed in the database; no cut-off is given here.

Tests used:
[1] = target: T1, Protein cereblon/Kelch-like ECH-associated protein 1 (Mus musculus) (UniProt Q9Z2X8+Q8C7D2); test: PROTAC activity at CRBN/Keap1 in mouse AML12 cells assessed as degradation of Keap1 protein incubated for 6 to 48 hrs by Western blotting analysis; type: cell-based; details: time 6-48 hrs
T1 sequence (Q8C7D2 whole entry, looked up): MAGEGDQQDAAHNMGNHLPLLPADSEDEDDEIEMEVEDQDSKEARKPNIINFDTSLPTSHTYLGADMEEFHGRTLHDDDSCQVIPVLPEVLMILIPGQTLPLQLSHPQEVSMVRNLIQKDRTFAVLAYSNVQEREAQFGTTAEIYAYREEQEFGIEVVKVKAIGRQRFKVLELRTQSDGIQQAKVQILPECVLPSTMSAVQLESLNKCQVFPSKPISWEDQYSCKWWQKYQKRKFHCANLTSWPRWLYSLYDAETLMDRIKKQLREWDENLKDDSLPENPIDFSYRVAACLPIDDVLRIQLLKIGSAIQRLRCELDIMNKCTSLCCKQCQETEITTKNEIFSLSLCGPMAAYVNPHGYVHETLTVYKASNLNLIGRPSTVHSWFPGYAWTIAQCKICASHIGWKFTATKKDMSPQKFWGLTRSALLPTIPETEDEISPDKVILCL
T1 sequence (Q9Z2X8 whole entry, looked up): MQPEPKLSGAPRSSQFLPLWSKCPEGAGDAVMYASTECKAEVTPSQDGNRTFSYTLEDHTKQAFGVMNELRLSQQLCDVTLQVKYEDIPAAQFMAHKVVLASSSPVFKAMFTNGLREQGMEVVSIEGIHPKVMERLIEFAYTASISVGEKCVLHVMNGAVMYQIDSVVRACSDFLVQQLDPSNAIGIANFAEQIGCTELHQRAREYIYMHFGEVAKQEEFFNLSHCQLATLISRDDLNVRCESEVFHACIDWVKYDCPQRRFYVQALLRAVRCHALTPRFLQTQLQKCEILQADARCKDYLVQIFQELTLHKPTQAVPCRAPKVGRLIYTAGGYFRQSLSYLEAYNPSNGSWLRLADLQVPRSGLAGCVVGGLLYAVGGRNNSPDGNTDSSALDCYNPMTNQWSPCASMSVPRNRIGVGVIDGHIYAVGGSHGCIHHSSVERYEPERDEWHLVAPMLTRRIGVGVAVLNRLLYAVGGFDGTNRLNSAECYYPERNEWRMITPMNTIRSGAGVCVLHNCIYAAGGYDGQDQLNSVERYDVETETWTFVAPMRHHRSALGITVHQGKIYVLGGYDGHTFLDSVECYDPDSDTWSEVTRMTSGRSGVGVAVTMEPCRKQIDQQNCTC

[2] = target: T1, Protein cereblon/Kelch-like ECH-associated protein 1 (Mus musculus); test: PROTAC activity at CRBN/Keap1 in mouse AML12 cells assessed as degradation of Keap1 protein at 0.5 to 2 uM incubated for 6 to 48 hrs by Western blotting analysis; type: cell-based; details: dose 0.5-2 µM, time 6-48 hrs, TDE = time-dependent effect
[3] = target: T1, Protein cereblon/Kelch-like ECH-associated protein 1 (Mus musculus); test: PROTAC activity at CRBN/Keap1 in mouse AML12 cells assessed as degradation of Keap1 protein at 0.5 to 2 uM incubated for 24 hrs by Western blotting analysis; type: cell-based; details: dose 0.5-2 µM
[4] = target: T1, Protein cereblon/Kelch-like ECH-associated protein 1 (Mus musculus); test: PROTAC activity at CRBN/Keap1 in mouse AML12 cells assessed as degradation of Keap1 protein level at 1 uM preincubated with MLN-4924 followed by compound addition and incubated for 24 hrs by Western blotting analysis; type: cell-based
[5] = target: T1, Protein cereblon/Kelch-like ECH-associated protein 1 (Mus musculus); test: PROTAC activity at CRBN/Keap1 in mouse AML12 cells assessed as degradation of Keap1 protein level at 1 uM preincubated with CDDO followed by compound addition and incubated for 24 hrs by Western blotting analysis; type: cell-based
[6] = target: Kelch-like ECH-associated protein 1 (Homo sapiens, UniProt Q14145); test: Binding affinity to Keap1 (unknown origin) assessed as dissociation constant incubated for 200 sec by sensor chip immobilization based surface plasmon resonance analysis
Kelch-like ECH-associated protein 1, sequence (Q14145 whole entry): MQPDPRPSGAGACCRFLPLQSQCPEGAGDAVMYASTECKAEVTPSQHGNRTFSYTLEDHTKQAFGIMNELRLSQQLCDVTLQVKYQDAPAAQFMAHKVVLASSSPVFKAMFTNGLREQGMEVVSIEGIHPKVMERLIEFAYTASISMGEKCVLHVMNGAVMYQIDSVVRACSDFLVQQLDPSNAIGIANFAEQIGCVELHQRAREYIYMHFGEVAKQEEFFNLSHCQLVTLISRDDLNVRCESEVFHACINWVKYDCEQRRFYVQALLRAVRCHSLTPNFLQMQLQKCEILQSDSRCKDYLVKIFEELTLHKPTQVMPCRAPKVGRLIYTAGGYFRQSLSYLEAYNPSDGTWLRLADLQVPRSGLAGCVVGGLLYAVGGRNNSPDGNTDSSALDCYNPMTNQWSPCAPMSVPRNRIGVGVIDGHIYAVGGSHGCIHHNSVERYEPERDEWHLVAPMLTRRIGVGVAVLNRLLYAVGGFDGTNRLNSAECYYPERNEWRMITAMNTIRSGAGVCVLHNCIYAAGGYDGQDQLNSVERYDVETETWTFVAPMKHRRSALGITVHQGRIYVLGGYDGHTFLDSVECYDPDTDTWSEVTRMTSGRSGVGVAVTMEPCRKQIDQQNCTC

[7] = system: AML12; test: Antioxidant activity against free fatty acid induced oxidative stress in mouse AML12 cells assessed as upregulation of Nrf2 protein expression level at 0.125 to 0.5 uM incubated for 24 hrs by immunofluorescence staining analysis; type: functional, cell-based; details: dose 0.125-0.5 µM
[8] = system: AML12; test: Antioxidant activity against free fatty acid induced oxidative stress in mouse AML12 cells assessed as downregulation of Keap1 protein expression level at 0.125 to 0.5 uM incubated for 24 hrs by immunoblot analysis; type: functional, cell-based; details: dose 0.125-0.5 µM
[9] = system: AML12; test: Antioxidant activity against free fatty acid induced oxidative stress in mouse AML12 cells assessed as upregulation of Nrf2 protein expression level at 0.125 to 0.5 uM incubated for 24 hrs by immunoblot analysis; type: functional, cell-based; details: dose 0.125-0.5 µM
[10] = system: AML12; test: Antioxidant activity against free fatty acid induced oxidative stress in mouse AML12 cells assessed as upregulation of HO-1 protein expression level at 0.125 to 0.5 uM incubated for 24 hrs by immunoblot analysis; type: functional, cell-based; details: dose 0.125-0.5 µM
[11] = system: AML12; test: Antioxidant activity against free fatty acid induced oxidative stress in mouse AML12 cells assessed as increase in GSH level at 0.125 to 0.5 uM; type: functional, cell-based; details: dose 0.125-0.5 µM
[12] = system: Mus musculus; test: Antioxidant activity against MCD diet-induced oxidative stress in C57Bl/6 mouse model of NAFLD assessed as downregulation of liver Keap1 protein expression level at 0.5 to 2 mg/kg,ip administrated for 4 weeks by immunohistochemical staining assay; type: functional, organism-based; details: dose 0.5-2 mg/kg
[13] = system: Mus musculus; test: Antioxidant activity against MCD diet-induced oxidative stress in C57Bl/6 mouse model of NAFLD assessed as downregulation of liver Keap1 protein expression level at 0.5 to 2 mg/kg,ip administrated for 4 weeks by immunofluorescence staining analysis; type: functional, organism-based; details: dose 0.5-2 mg/kg
[14] = system: Mus musculus; test: Antioxidant activity against MCD diet-induced oxidative stress in C57Bl/6 mouse model of NAFLD assessed as upregulation of liver Nrf2 protein expression level at 0.5 to 2 mg/kg,ip administrated for 4 weeks by immunofluorescence staining analysis; type: functional, organism-based; details: dose 0.5-2 mg/kg
[15] = system: Mus musculus; test: Antioxidant activity against MCD diet-induced oxidative stress in C57Bl/6 mouse model of NAFLD assessed as upregulation of liver HO-1 protein expression level at 0.5 to 2 mg/kg,ip administrated for 4 weeks by immunohistochemical staining assay; type: functional, organism-based; details: dose 0.5-2 mg/kg
[16] = system: Mus musculus; test: Antioxidant activity against MCD diet-induced oxidative stress in C57Bl/6 mouse model of NAFLD assessed as upregulation of liver NQO1 protein expression level at 0.5 to 2 mg/kg,ip administrated for 4 weeks by immunohistochemical staining assay; type: functional, organism-based; details: dose 0.5-2 mg/kg
[17] = system: Mus musculus; test: Antioxidant activity against MCD diet-induced oxidative stress in C57Bl/6 mouse model of NAFLD assessed as decrease in liver ROS level at 0.5 to 2 mg/kg,ip administrated for 4 weeks by immunostaining analysis; type: functional, organism-based; details: dose 0.5-2 mg/kg
[18] = system: AML12; test: Antioxidant activity against free fatty acid induced oxidative stress in mouse AML12 cells assessed as reduction in intracellular lipid accumulation at 0.5 uM incubated for 24 hrs by Oil Red O staining based microscopic analysis; type: functional, cell-based
[19] = system: AML12; test: Antioxidant activity against free fatty acid induced oxidative stress in mouse AML12 cells assessed as reduction in total cholesterol level at 0.5 uM incubated for 24 hrs; type: functional, cell-based
[20] = Toxicity in MCD diet-induced oxidative stress in C57Bl/6 mouse model of NAFLD assessed as body weight loss at 2 mg/kg,ip administrated for 4 weeks […]; type: organism-based; details: in vivo, 672 h
[21] = Toxicity in MCD diet-induced oxidative stress in C57Bl/6 mouse model of NAFLD assessed as decrease in ratio of liver weight to body weight at ip administrated for 4 weeks […]; type: organism-based; details: in vivo, 672 h
[22] = system: Mus musculus; test: Antioxidant activity against MCD diet-induced oxidative stress in C57Bl/6 mouse model of NAFLD assessed as increase in serum HDL-C level at ip administrated for 4 weeks; type: functional, organism-based
[23] = system: Mus musculus; test: Antioxidant activity against MCD diet-induced oxidative stress in C57Bl/6 mouse model of NAFLD assessed as reduction of serum TC level at 0.5 to 2 mg/kg,ip administrated for 4 weeks; type: functional, organism-based; details: dose 0.5-2 mg/kg
[24] = system: Mus musculus; test: Antioxidant activity against MCD diet-induced oxidative stress in C57Bl/6 mouse model of NAFLD assessed as reduction of serum aminotransferase level at 0.5 to 2 mg/kg,ip administrated for 4 weeks; type: functional, organism-based; details: dose 0.5-2 mg/kg
[25] = system: Mus musculus; test: Antioxidant activity against MCD diet-induced oxidative stress in C57Bl/6 mouse model of NAFLD assessed as reduction of serum ALT level at 0.5 to 2 mg/kg,ip administrated for 4 weeks; type: functional, organism-based; details: dose 0.5-2 mg/kg
[26] = system: Mus musculus; test: Antioxidant activity against MCD diet-induced oxidative stress in C57Bl/6 mouse model of NAFLD assessed as reduction of pericellular fibrosis in liver at ip administrated for 4 weeks by Sirius red staining based analysis; type: functional, organism-based
[27] = Acute toxicity in C57BL/6 mouse assessed as histopathological change in heart at 20 mg/kg,ip qd administrated for 3 consecutive days and measured on day 4 by hematoxylin and eosin staining based assay; type: organism-based; details: in vivo
[28] = Acute toxicity in C57BL/6 mouse assessed as histopathological change in kidney at 20 mg/kg,ip qd administrated for 3 consecutive days and measured on day 4 by hematoxylin and eosin staining based assay; type: organism-based; details: in vivo
[29] = Toxicity in C57BL/6 mouse assessed as change in body weight at 2 mg/kg,ip qd administrated for 4 weeks; type: organism-based; details: in vivo, 672 h
[30] = Toxicity in C57BL/6 mouse assessed as histopathological change in spleen at 2 mg/kg,ip qd administrated for 4 weeks by hematoxylin and eosin staining based assay; type: organism-based; details: in vivo, 672 h
[31] = Toxicity in C57BL/6 mouse assessed as histopathological change in kidney at 2 mg/kg,ip qd administrated for 4 weeks by hematoxylin and eosin staining based assay; type: organism-based; details: in vivo, 672 h

For CC1(C)CC[C@]2(C(=O)NCCCCCNc3cccc4c3C(=O)N(C3CCC(=O)NC3=O)C4=O)CC[C@]3(C)[C@H](C(=O)C=C4C5(C)C=C(C#N)C(=O)C(C)(C)[C@@H]5CC[C@]43C)[C@@H]2C1 (single isomer, unassigned), which Activity [1] is on record?
Its Activity is “Dose-Dependent Effect”.

What about the Activity [2] of the same molecule?
The Activity was “Tde”.

And the Activity [3]?
The Activity was “Active”.

And the Activity [4]?
Its Activity is “inactive”.

And the Activity [5]?
The Activity was “inactive”.

And the Kd [6]?
Its Kd is 11.9 µM.

And the Activity [7]?
The Activity was “Active”.

What about the Activity [8] of the same molecule?
The Activity was “Active”.

What about the Activity [9] of the same molecule?
Its Activity is “Active”.

What about the Activity [10] of the same molecule?
The Activity was “Active”.

What about the Activity [11] of the same molecule?
The Activity was “Active”.

And the Activity [12]?
The Activity was “Dose-Dependent Effect”.

And the Activity [13]?
Its Activity is “Dose-Dependent Effect”.

What about the Activity [14] of the same molecule?
Its Activity is “Dose-Dependent Effect”.

What about the Activity [15] of the same molecule?
Its Activity is “Dose-Dependent Effect”.

And the Activity [16]?
The Activity was “Dose-Dependent Effect”.

And the Activity [17]?
The Activity was “Active”.

And the Activity [18]?
Its Activity is “Active”.

And the Activity [19]?
The Activity was “inactive”.

And the Activity [20]?
Its Activity is “Non-Toxic”.

What about the Activity [21] of the same molecule?
Its Activity is “Non-Toxic”.

And the Activity [22]?
The Activity was “Dose-Dependent Effect”.

And the Activity [23]?
The Activity was “Active”.

And the Activity [24]?
The Activity was “Active”.

What about the Activity [25] of the same molecule?
Its Activity is “Active”.

And the Activity [26]?
The Activity was “Dose-Dependent Effect”.

What about the Activity [27] of the same molecule?
Its Activity is “Toxic”.

And the Activity [28]?
The Activity was “Non-Toxic”.

What about the Activity [29] of the same molecule?
Its Activity is “Toxic”.

What about the Activity [30] of the same molecule?
The Activity was “Non-Toxic”.

And the Activity [31]?
Its Activity is “Non-Toxic”.
